Where two headings read alike, the source gives them in different places.
Experiments:
TT = experiment: Cancer cell line profiling, Genomics of Drug Sensitivity Project; type: cell-based; conditions: Homo sapiens, read-out: CD532 EC50 (uM), Thyroid
RPMI 2650 = experiment: as above; conditions: Homo sapiens, RPMI-2650, read-out: CD532 EC50 (uM)
8505C = experiment: as above; conditions: Homo sapiens, read-out: CD532 EC50 (uM)
SNU-449 = experiment: as above; conditions: Homo sapiens, SNU-449, read-out: CD532 EC50 (uM)
SK-MEL-5 = experiment: as above
SNU-61 = experiment: as above; conditions: read-out: CD532 EC50 (uM)
RL95-2 = experiment: as above; conditions: Homo sapiens, RL95-2, read-out: CD532 EC50 (uM)
tumor-derived cell lines = experiment: Screen of panel of tumor-derived, genetically characterized cell lines; type: cell-based
CAL-62 = experiment: Cancer cell line profiling, Genomics of Drug Sensitivity Project; conditions: Homo sapiens, CAL-62, read-out: CD532 EC50 (uM)
COLO-829 = experiment: as above; conditions: Homo sapiens, COLO-829, read-out: CD532 EC50 (uM)
A431 = experiment: as above; conditions: Homo sapiens, A-431, read-out: CD532 EC50 (uM)
IGR-1 = experiment: as above; conditions: Homo sapiens, IGR-1, read-out: CD532 EC50 (uM)
SCH = experiment: as above; conditions: read-out: CD532 EC50 (uM)
huH-1 = experiment: as above; conditions: Homo sapiens, HuH-1, read-out: CD532 EC50 (uM)
K5 = experiment: as above; conditions: read-out: CD532 EC50 (uM)
[1] = system: MYCN-expressing, SHH-subtype medulloblastoma allograft; experiment: Medulloblastoma allograft in mice; type: in vivo
Protocol: Mice were injected intraperitoneally as described. For determining tumor volume, for example in medulloblastoma model mice, mice were euthanized once maximum tumor length exceeded 2.0 cm, per IACUC protocol (IACUC, Institutional Animal Care and Use Committee).

HO-1-u-1 = experiment: Cancer cell line profiling, Genomics of Drug Sensitivity Project; conditions: read-out: CD532 EC50 (uM)
[2] = target: T1, c-MYC/Aurora A interaction (Homo sapiens, UniProt O14965); experiment: Immunoprecipitation of c-MYC and immunoblotting for Aurora A; type: cell-based; conditions: RKO colon cancer cell line
T1 construct: endogenous in cells; host or cells: RKO colon cancer cell line
T1 sequence (O14965 whole entry): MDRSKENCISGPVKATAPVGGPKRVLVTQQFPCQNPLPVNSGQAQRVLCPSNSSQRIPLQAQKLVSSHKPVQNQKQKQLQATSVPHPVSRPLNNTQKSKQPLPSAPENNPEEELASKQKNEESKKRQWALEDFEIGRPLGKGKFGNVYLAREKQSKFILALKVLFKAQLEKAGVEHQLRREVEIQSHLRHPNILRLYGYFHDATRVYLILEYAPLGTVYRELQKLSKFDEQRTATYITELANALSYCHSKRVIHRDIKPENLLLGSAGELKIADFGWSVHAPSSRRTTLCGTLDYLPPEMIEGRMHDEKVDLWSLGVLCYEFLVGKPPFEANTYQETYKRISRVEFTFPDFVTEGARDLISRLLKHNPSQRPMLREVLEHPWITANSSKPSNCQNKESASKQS

HSC-2 = experiment: Cancer cell line profiling, Genomics of Drug Sensitivity Project; conditions: Homo sapiens, HSC-2, read-out: CD532 EC50 (uM)
NB12 = experiment: as above; conditions: read-out: CD532 EC50 (uM)
OVKATE = experiment: as above; conditions: read-out: CD532 EC50 (uM)
HN = experiment: as above; type: cell-based; conditions: read-out: CD532 EC50 (uM), Head & Neck
NH-12 = experiment: as above; conditions: read-out: CD532 EC50 (uM)
MYCN-MAX = experiment: Immunoprecipitation of MYCN and immunoblot for MAX; type: cell-based; conditions: SK-N-BE(2) cells, 2 hrs
Protocol: Pulldowns were performed with anti-N-Myc antibody (Santa Cruz, SC-53993) and Protein G sepharose beads (Sigma-Aldrich, P3296). Immunoblots were performed as described above.

SNU-1 = experiment: Cancer cell line profiling, Genomics of Drug Sensitivity Project; conditions: Homo sapiens, SNU1, read-out: CD532 EC50 (uM)
NB13 = experiment: as above; conditions: read-out: CD532 EC50 (uM)
SK-MEL-3 = experiment: as above; conditions: Homo sapiens, SK-MEL3, read-out: CD532 EC50 (uM)
Aurora A protein = target: T2, Aurora A protein (Homo sapiens, UniProt O14965); experiment: Dose response immunoblot for Aurora A protein in MYCN-amplified neuroblastoma cell lines; type: cell-based; conditions: across cell lines (FIGS. 1D and 7)
T2 construct: endogenous in cells; host or cells: SK-N-BE(2), SMS-KCN, Kelly neuroblastoma cells
T2 sequence (O14965 whole entry): as above
Protocol: Neuroblastoma tumor cell lines were obtained from the University of California San Francisco Cell Culture Facility (Kelly, SK-N-BE2, and SH-EP). SMS-KCN, SHEP MYCN^wt and MYCN^T58A/S62A cells were obtained. All cells were grown in RPMI with 10% FBS. Neuroblastoma cells were harvested and lysed with Cell Signaling Lysis buffer+1% SDS, sonicated and supernatants boiled in LDS sample buffer (Invitrogen). […] Western blot quantitation performed with ImageJ software.

HLE = experiment: Cancer cell line profiling, Genomics of Drug Sensitivity Project; conditions: Homo sapiens, read-out: CD532 EC50 (uM)
ML-1 = experiment: as above; conditions: ML1, read-out: CD532 EC50 (uM)
NCI-H747 = experiment: as above; conditions: Homo sapiens, NCI-H747, read-out: CD532 EC50 (uM)

O=C(Nc1ccc(Nc2nccc(Nc3cc(C4CCCC4)[nH]n3)n2)cc1)Nc1cccc(C(F)(F)F)c1 [CD532, 1-(4-((4-((5-cyclopentyl-1H-pyrazol-3-yl)amino)pyrimidin-2-yl)amino)phenyl)-3-(3-(trifluoromethyl)phenyl)urea]
EC50 (TT): 0.972 µM
EC50 (RPMI 2650): 0.412 µM
EC50 (8505C): 0.662 µM
EC50 (SNU-449): 12.1 µM
EC50 (SK-MEL-5; Homo sapiens, SK-MEL-5, read-out: CD532 EC50 (uM), SK-MEL-5 cell line, Skin): 0.525 µM
EC50 (SK-MEL-5; read-out: CD532 EC50, SK-MEL-5 cell line, Skin): 0.366 µM
EC50 (SNU-61): 1.02 µM
EC50 (RL95-2): 0.335 µM
susceptibility of MYCN amplified vs non-amplified cell lines (tumor-derived cell lines; Wilcoxon Rank Sum test): significantly more susceptible to CD532 than non-amplified lines
EC50 values across the panel (tumor-derived cell lines; most cell lines): nanomolar range
EC50 (CAL-62): 0.589 µM
EC50 (COLO-829): 0.796 µM
EC50 (A431): 0.364 µM
EC50 (IGR-1): 0.27 µM
EC50 (SCH): 1.24 µM
EC50 (huH-1): 1.38 µM
EC50 (K5): 1.33 µM
overall survival ([1]; 25 mg/kg b.i.w. vs vehicle): statistical significant increase in overall survival
tumor growth (tumor size over time) ([1]; 25 mg/kg b.i.w., intraperitoneal injection): inhibits growth
EC50 (HO-1-u-1): 9.81 µM
c-MYC association with Aurora A [2]: reduces this interaction
EC50 (HSC-2): 2.15 µM
EC50 (NB12): 0.293 µM
EC50 (OVKATE): 6 µM
EC50 (HN): 1.63 µM
EC50 (NH-12): 0.37 µM
MYCN-MAX binding (MYCN-MAX): did not affect MYCN-MAX binding
EC50 (SNU-1): 0.158 µM
EC50 (NB13): 1.02 µM
EC50 (SK-MEL-3): 0.567 µM
Aurora A protein level (Aurora A protein): downregulated Aurora A protein across cell lines (at higher concentrations)
EC50 (HLE): 0.567 µM
EC50 (ML-1): 1.32 µM
EC50 (NCI-H747): 0.665 µM

— US12551482B2, “Aurora kinase inhibitors” (The Regents of the University of California, priority 2013, dated 2026)
